The text below walks through data of patent US12377175B2, “Trifunctional constructs with tunable pharmacokinetics useful in imaging and anti-tumor therapies” (Cornell University, priority 2016, dated 2025).

A value given as a limit tells only on which side of the number the result lay.

Data set [1] concerns LNCaP xenograft tumor-bearing mice. Put plainly: PET/CT imaging of 66Ga-RPS ligands in LNCaP xenograft mice. The class given is in vivo, mouse. Conditions: 66Ga PET/CT; for tumor uptake (image-derived): 24 h post injection. The procedure: (§1) Inoculation of mice with xenografts: All animal studies were approved by the Institutional Animal Care and Use Committee of Weill Cornell Medicine and were undertaken in accordance with the guidelines set forth by the USPHS Policy on Humane Care and Use of Laboratory Animals. Animals were housed under standard conditions in approved facilities with 12 h light/dark cycles. Food and water was provided ad libitum throughout the course of the studies. Hairless male nu/nu mice were purchased from the Jackson Laboratory. For inoculation in mice, LNCaP cells were suspended at 4×10^7 cells/mL in a 1:1 mixture of PBS:Matrigel (BD Biosciences). Each mouse was injected in the left flank with 0.25 mL of the cell suspension. The mice were imaged when the tumors reached approximately 200-400 mm^3, while biodistributions were conducted when tumors were in the range 100-400 mm^3.
Imaging of ^66Ga-RPS ligands in LNCaP xenograft mice: LNCaP xenograft tumor-bearing mice (2-3 per compound) injected intravenously with a bolus injection of 0.56-5.4 MBq (15-145 μCi) of the ^66Ga-labeled ligand. The specific activity of the tracers was in the range 14.8-47 MBq/μmol (0.4-1.27 mCi/μmol). The mice were imaged using PET/CT (Inveon™; Siemens Medical Solutions, Inc.) at 1, 3, 6 and 24 h post-injection following inhalation anesthetization with isoflurane. Total acquisition time was 30 min for the 1 h, 3 h and 6 h images, and 60 min for 24 h time point. A CT scan was obtained immediately before the acquisition for both anatomical co-registration and attenuation correction. Images were reconstructed using the Inveon™ software supplied by the vendor. Image-derived tumor and kidney uptake was estimated by comparison to a 10% injected dose […] standard introduced into the imaging field of view. The standard was prepared by dilution of 10% of the injected activity to 1 mL with saline. Volumes of interest (VOIs) were drawn with the aid of the CT and confirmed by PET. The contents of the VOIs were integrated and the calculated counts were converted to […] by direct comparison to the aforementioned standard following correction for activity injected.

For data set [2] the test system is unchanged. Put plainly: Biodistribution studies of 177Lu-labeled ligands in LNCaP xenograft mice. In kind it is in vivo, mouse. The protocol: as §1
Biodistribution studies of 177Lu-labeled ligands in LNCaP xenograft mice: LNCaP xenograft tumor-bearing mice (5 per time point per compound) were injected intravenously with a bolus injection of 348-851 kBq (9.4-23 μCi) and 37-50 ng ([…]) of each ligand. The mice were sacrificed at 4, 24 and 96 h post injection. A blood sample was removed, and a full biodistribution study was conducted on the following organs (with contents): heart, lungs, liver, small intestine, large intestine, stomach, spleen, pancreas, kidneys, muscle, bone and tumor. Tissues were weighed and counted on a 2470 Wizard^2 Automatic Gamma Counter (Perkin Elmer). Counts were corrected for decay and for activity injected, and tissue uptake was expressed as percent injected dose per gram (% ID/g). Standard error measurement was calculated for each data point.

For data set [3] the test system is unchanged. Kind of data set: Dosimetry (dose integrals from time-activity curves of 177Lu-labeled ligands). In kind it is in vivo, mouse. Conditions: over 96 h. The protocol:
Dosimetry: The dosimetry was calculated assuming a linear interpolation between the three time points. The average injected dose per organ was calculated by using the average of the activity and organ weights of the mice at that time point. Intermediate time points at every 4 hours were generated using the linear approximation and all time points were corrected for decay during the time interval between points. These curves were integrated using a trapezoidal approximation and the sum used to determine the residence time.

Data set [4] in a line: Biodistribution / in vivo stability of [225Ac(macropa)]+ compared with 225Ac(NO3)3 and [225Ac(DOTA)]- in C57BL/6 mice. The conditions noted are these: for accumulation of 225Ac in organs / blood clearance and excretion: tail vein, 15 min, 1 h, 5 h. The protocol: C57BL/6 mice were injected via tail vein with 10-50 kBq of each radiometal complex and were sacrificed after 15 min, 1 h, or 5 h.

The next data set has as its system LNCaP xenograft tumors. Kind of data set: Therapy study in LNCaP xenograft mice. In kind it is in vivo, mouse. Conditions: for tumors not detectable (<0.5 mm^3): 75 d post injection. The protocol: as §1, with “xenografts.” for “xenografts:”, “Male BALB/c athymic” for “Hairless male”, “Biodistributions” for “The mice were imaged when the tumors reached approximately 200-400 mm^3, while biodistributions”, “200-800 mm^3, while therapy studies were initiated when tumors were in the range 50-900” for “100-400”
Therapy study in LNCaP xenograft mice. LNCaP xenograft tumor-bearing mice were randomly assigned to 5 groups (7 mice per group). […] The fourth group was injected with the same volume of vehicle. The fifth group was injected with 133 kBq ^225Ac-DOTA-Lys-IPBA. Tumor dimensions were measured and recorded three times weekly with digital calipers, and tumor volumes were calculated using the modified ellipsoid equation, V=0.5*length*width*width. […] Body weight was measured with a digital balance twice weekly, and mice were monitored for signs of distress. The mice were photographed weekly to visually confirm changes in tumor volume.

As for `O=C(O)CCC(NC(=O)NC(CCCCNC(=O)Nc1cccc(-c2cnnn2CC(=O)NC(CCCCNC(=S)Nc2ccc(CC3CN(CC(=O)O)CCN(CC(=O)O)CCN(CC(=O)O)CCN3CC(=O)O)cc2)C(=O)NC(CCCCNC(=O)Cc2ccc(I)cc2)C(=O)O)c1)C(=O)O)C(=O)O` (stereo not drawn) [66Ga-RPS-068, metal not drawn], in data set [1], the “time of maximum uptake in the tumor” value turned out to be 3 h and the “tumor uptake (image-derived)” value is 8.3±2.8 % ID/cm^3. For the same compound, the “maximum uptake in the tumor (image-derived)” value in data set [1] (over 1, 3, 6 and 24 h post injection) was found to be 9.7±2.0 % ID/cm^3.
With `O=C([O-])CN1CCN(CC(=O)[O-])CCN(CC(=O)O)C(Cc2ccc(NC(=S)NCCCC[C@H](NC(=O)CCOCCOCCOCCOCCOCCOCCn3cc(-c4cccc(NC(=O)NCCCC[C@H](NC(=O)N[C@@H](CCC(=O)O)C(=O)O)C(=O)O)c4)nn3)C(=O)N[C@@H](CCCCNC(=O)Cc3ccc(I)cc3)C(=O)O)cc2)CN(CC(=O)[O-])CC1.[66Ga+3]` (stereo partly drawn) [66Ga-RPS-069], in data set [1], the “tumor uptake (image-derived)” value was 7.0±3.9 % ID/cm^3.
For the compound `O=C([O-])CN1CCN(CC(=O)[O-])CCN(CC(=O)O)C(Cc2ccc(NC(=S)NCCCC[C@H](NC(=O)CCOCCOCCOCCOCCn3cc(-c4cccc(NC(=O)NCCCC[C@H](NC(=O)N[C@@H](CCC(=O)O)C(=O)O)C(=O)O)c4)nn3)C(=O)N[C@@H](CCCCNC(=O)Cc3ccc(I)cc3)C(=O)O)cc2)CN(CC(=O)[O-])CC1.[177Lu+3]` (stereo partly drawn) [177Lu-RPS-061], the “blood activity (comparison within the series)” value (from here on “blood activity”) in data set [2] (4 h p.i.) is listed as “highest blood activity”. Further, in data set [2] (96 h p.i.), the tumor-to-kidney ratio was found to be 3.64±0.29. In addition, the “dose integral in the tumor relative to 177Lu-PSMA-617” value in data set [3] is “at least two times higher”.
As to `O=C([O-])CN1CCN(CC(=O)[O-])CCN(CC(=O)O)C(Cc2ccc(NC(=S)NCCCC[C@H](NC(=O)CCOCCOCCOCCn3cc(-c4cccc(NC(=O)NCCCC[C@H](NC(=O)N[C@@H](CCC(=O)O)C(=O)O)C(=O)O)c4)nn3)C(=O)N[C@@H](CCCCNC(=O)Cc3ccc(I)cc3)C(=O)O)cc2)CN(CC(=O)[O-])CC1.[177Lu+3]` (stereo partly drawn) [177Lu-RPS-063], in data set [2] (4 h p.i.), the “blood activity” value is recorded as “highest blood activity” and the tumor uptake is 30.0±3.1 % ID/g. This compound also gave a kidney uptake in data set [2] (24 h p.i.) of 51.8±8.6 % ID/g. Further, in data set [2] (96 h p.i.), the tumor uptake came out at 12.9±0.5 % ID/g and the tumor-to-kidney ratio turned out to be 2.75±0.17. Moreover, in data set [3], the “dose integral in the tumor relative to 177Lu-PSMA-617” value is “nearly four times higher”.
As to `O=C([O-])CN1CCN(CC(=O)[O-])CCN(CC(=O)O)C(Cc2ccc(NC(=S)NCCCC[C@H](NC(=O)CCOCCOCCOCCOCCOCCOCCOCCOCCn3cc(-c4cccc(NC(=O)NCCCC[C@H](NC(=O)N[C@@H](CCC(=O)O)C(=O)O)C(=O)O)c4)nn3)C(=O)N[C@@H](CCCCNC(=O)Cc3ccc(I)cc3)C(=O)O)cc2)CN(CC(=O)[O-])CC1.[177Lu+3]` (stereo partly drawn) [177Lu-RPS-066], in data set [2] (4 h p.i.), the “blood activity” value was “lower blood retention” and the tumor uptake is 18.7±1.1 % ID/g. In addition, in data set [2] (24 h p.i.), the kidney uptake is on record as 6.2±0.8 % ID/g and the tumor-to-kidney ratio is reported as 1.92±0.30. Further, the tumor uptake in data set [2] (96 h p.i.) worked out at 5.9±0.7 % ID/g. Also, the “dose integral in the tumor relative to 177Lu-PSMA-617” value in data set [3] is on record as “at least two times higher”.
For the compound `O=C([O-])CN1CCN(CC(=O)[O-])CCN(CC(=O)O)C(Cc2ccc(NC(=S)NCCCC[C@H](NC(=O)CCOCCOCCOCCOCCOCCOCCn3cc(-c4cccc(NC(=O)NCCCC[C@H](NC(=O)N[C@@H](CCC(=O)O)C(=O)O)C(=O)O)c4)nn3)C(=O)N[C@@H](CCCCNC(=O)Cc3ccc(I)cc3)C(=O)O)cc2)CN(CC(=O)[O-])CC1.[177Lu+3]` (stereo partly drawn) [177Lu-RPS-069], in data set [2] (4 h p.i.), the “blood activity” value was “lower blood retention” and the tumor uptake was found to be 17.0±2.1 % ID/g. The compound also registered a tumor uptake in data set [2] (96 h p.i.) of 9.8±0.8 % ID/g. Besides, in data set [3], the “dose integral in the tumor relative to 177Lu-PSMA-617” value is listed as “at least two times higher”.
Turning to `O=[N+]([O-])[O-].O=[N+]([O-])[O-].O=[N+]([O-])[O-].[225Ac]` [225Ac(NO3)3, reference compound], in data set [4], the “accumulation of 225Ac in organs” value was “large accumulation in the liver and spleen”; the “blood clearance and excretion” value was “slow blood clearance and excretion”.
For `O=C([O-])CN1CCN(CC(=O)[O-])CCN(CC(=O)O)C(Cc2ccc(NC(=S)N[C@@H](CCCCNC(=O)CCCc3ccc(I)cc3)C(=O)O)cc2)CN(CC(=O)[O-])CC1.[225Ac+3]` (stereo partly drawn) [225Ac-DOTA-Lys-IPBA], the “mice surviving the first 21 d” value in the data set with LNCaP xenograft tumors (133 kBq positive control group) amounted to 100%.
Take `O=C(O)CC[C@H](NC(=O)N[C@@H](CCCCNC(=O)Nc1cccc(-c2cn(CCOCCOCCOCCC(=O)N[C@@H](CCCCNC(=S)Nc3cc(CN4CCOCCOCCN(Cc5cccc(C(=O)[O-])n5)CCOCCOCC4)nc(C(=O)[O-])c3)C(=O)NCCOCCOCCOCCOCCOCCOCCOCCOCCC(=O)N[C@@H](CCCCNC(=O)CCCc3ccc(I)cc3)C(=O)O)nn2)c1)C(=O)O)C(=O)O.[225Ac+3]` [225Ac-RPS-074]: in the data set with LNCaP xenograft tumors (37 kBq group), the “mice surviving the first 21 d” value is reported as 100%. For the same compound, the tumor growth rate result with LNCaP xenograft tumors (37 kBq treatment group) is “appeared to grow at a similar rate to the untreated tumors”. Further, the “tumors not detectable (<0.5 mm^3)” value in the data set on LNCaP xenograft tumors (74 kBq group, 1/7) came out at 14%; with LNCaP xenograft tumors (138 kBq treatment group, 6/7), 86%. Besides, the “tumor volumes that began to increase again” value with LNCaP xenograft tumors (74 kBq group, after 42 d, 6/7) amounted to 86%. In the data set on LNCaP xenograft tumors (74 kBq group, post injection), the “time over which tumor volume decreased” value is ≤ 42 days. Further, in the data set with LNCaP xenograft tumors (74 kBq group, up to 42 days p.i., 5/7), the “mice with tumor volume less than 1 mm^3” value was found to be 71%. Further, in the data set with LNCaP xenograft tumors (138 kBq and 74 kBq), the antitumor effect result is listed as “significant antitumor effect”. For the same compound, in the data set with LNCaP xenograft tumors (138 kBq treatment group), the “survival of the 75 d study” value is “Every mouse in the 138 kBq treatment group survived”.
For the compound `O=C([O-])CN1CCN(CC(=O)[O-])CCN(CC(=O)[O-])CCN(CC(=O)[O-])CC1.[225Ac+3]` [[225Ac(DOTA)]-, reference compound], the “blood clearance and excretion” value in data set [4] is on record as “clear more rapidly through the urine”.
As for `O=C([O-])c1cccc(CN2CCOCCOCCN(Cc3cccc(C(=O)[O-])n3)CCOCCOCC2)n1.[225Ac+3]` [[225Ac(macropa)]+], in data set [4], the “in vivo stability of the complex” value is “highly stable in vivo”; the “accumulation of 225Ac in organs” value was “did not accumulate in any organ”; the “blood clearance and excretion” value is “rapidly cleared from mice”.
